These results are taken from ChEMBL document CHEMBL1201862, “PubChem BioAssay data set” (2004).

Among the test systems are XF498; DLD-1; LXFL 529; DMS-273; SNB-78; RXF 631; DMS-114; HOP-18; MDA-N.
Common to all, as to assay: NCI tumour cell line growth inhibition, 48 h

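These data come from cells grown in 96-well plates and exposed to compound for 48 hours at five concentrations. GI50 is the concentration that inhibits growth by half.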 Active and inactive are the calls of the source. Rule as the data show it: active = GI50 up to about 1.1 µM and inactive = higher.

As for `O=C(Nc1ccc(Cl)cc1C(=O)O)c1ccc([N+](=O)[O-])cc1`, the GI50 in the assay on XF498 was 24.9 µM (inactive); with DLD-1, 7.06 µM (inactive); in the assay with LXFL 529, 15.5 µM (inactive); with DMS-273, 27.7 µM (inactive); in the assay on SNB-78, 22.4 µM (inactive); in the assay on RXF 631, 30.1 µM (inactive). The GI50 in the assay on DMS-114 was 9.08 µM (inactive).
In the case of `COC[C@H](C)/N=C/N1CCc2ccccc2C1(Cc1ccccc1)Cc1ccccc1`, the GI50 in the assay on XF498 was 12.3 µM (inactive); in the assay on DLD-1, 8.18 µM (inactive); in the assay with HOP-18, 11 µM (inactive); with LXFL 529, 11.8 µM (inactive); in the assay with RXF 631, 13.5 µM (inactive).
For the compound `O=C1C2c3[nH]c4ccccc4c3[C@@H]3CCCCCCCCCCC3C2C(=O)N1c1ccccc1` (stereo partly drawn), the GI50 with DLD-1 is 24.5 µM (inactive); with HOP-18, 41.5 µM (inactive); with LXFL 529, 13.5 µM (inactive); in the assay with DMS-273 it was 27.3 µM (inactive); in the assay with SNB-78, 8.53 µM (inactive); with RXF 631, 12.6 µM (inactive). In addition, the GI50 with DMS-114 is 16.9 µM (inactive).
For the compound `COc1cc(/C=C/c2ccc(C)cc2)cc(OC)c1OC`, the GI50 was 6.49 µM (inactive) in the assay on XF498; 4.06 µM (inactive) in the assay on DLD-1; 11.4 µM (inactive) with HOP-18; 0.895 µM (active) in the assay with MDA-N; 5.58 µM (inactive) in the assay with LXFL 529; 3.79 µM (inactive) with DMS-273. The values for the GI50 with SNB-78 and in the assay with DMS-114 were 2.14 µM (inactive) and 5.9 µM (inactive), respectively.
In the case of `C[C@H]1CCC2C(CN3CCCCC3)C(=O)OC2[C@]2(C)C(=O)CC(N3CCCCC3)C12O` (stereo partly drawn), the GI50 in the assay on DLD-1 is 3.34 µM (inactive); in the assay on HOP-18, 29 µM (inactive); in the assay with DMS-273, 3.57 µM (inactive); in the assay with SNB-78, 4.41 µM (inactive); in the assay with RXF 631, 1.28 µM (inactive); in the assay with DMS-114, 3.2 µM (inactive).
For `Cc1cc2c(C)nn(Cc3ccccc3)c2c(C(=O)O)c1C`, the GI50 in the assay with XF498, in the assay with HOP-18, in the assay with LXFL 529, in the assay with DMS-273, in the assay on SNB-78 and in the assay with RXF 631 was > 100 µM (inactive) in each case.
Take `O=C1c2ccc(O)cc2C(=O)c2ccc(O)cc21`: the GI50 in the assay with XF498 is > 100 µM (inactive); in the assay with DLD-1, 38.6 µM (inactive); in the assay with LXFL 529, 87.3 µM (inactive); with DMS-273 it was 49.2 µM (inactive); with SNB-78, > 100 µM (inactive); in the assay with RXF 631, 75 µM (inactive). In the assay with DMS-114, the GI50 was 95.9 µM (inactive).
For the compound `C/C(=N\NC(=N)N)C(CN(C)C)C(c1ccccc1)c1c(O)c2ccccc2oc1=O` (stereo not drawn), the GI50 in the assay on XF498, in the assay on DLD-1, in the assay on HOP-18, in the assay with MDA-N, with LXFL 529 and with DMS-273 was > 100 µM (inactive) throughout. Besides, the GI50 in the assay on SNB-78 and in the assay on DMS-114 was > 100 µM (inactive) in each case.
With `O=C(NCCCN1CCN(CCCNC(=O)c2cccc3ccccc23)CC1)c1cccc2ccccc12`, the GI50 with XF498 is 21.9 µM (inactive); in the assay with HOP-18, > 100 µM (inactive); with LXFL 529, 89.7 µM (inactive); in the assay with SNB-78 it was 41.3 µM (inactive); with RXF 631, 75.7 µM (inactive); with DMS-114 it was 59.8 µM (inactive).
In the case of `O=C(O)CCC1CCc2cccc3occ1c23` (stereo not drawn), the GI50 in the assay with DLD-1, in the assay with LXFL 529, in the assay on DMS-273, in the assay on SNB-78, with RXF 631 and in the assay with DMS-114 was > 100 µM (inactive) in each case.
With `COC(=O)c1onc(-c2c(OC)cc(OC)cc2OC)c1C(=O)OC`, the GI50 with XF498, with DLD-1, with HOP-18, in the assay on LXFL 529, with DMS-273 and in the assay with SNB-78 was > 100 µM (inactive) throughout. In the assay on DMS-114, the GI50 is > 100 µM (inactive).
